The test system of this assay is 299254-011-R-J1-PDC complex spheroids viability. Briefly: Anticancer human tumor 299254-011-R-J1-PDC patient-derived melanoma cell line growth inhibition [GQUAD]. As to conditions: for viability, T/C: stronger effect = lower value. Summed up:
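Tumor cells were grown as complex spheroids with HUVEC endothelial cells and mesenchymal stem cells as stroma. G-quadruplex stabilizers were combined with targeted agents over half-log dilutions from near the clinical Cmax, or from 10 microM.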

Setting [1] is: curve of first compound, second compound 0.0316 µM.
Where [2] appears, read: curve of first compound, second compound 0.1 µM.
[3] abbreviates: curve of first compound, second compound 0.316 µM.
Setting [4] is: curve of first compound, second compound 1 µM.
Setting [5] is: curve of first compound, second compound 3.16 µM.
Setting [6] is: curve of first compound, second compound 10 µM.
[7] abbreviates: second compound 0.0316 µM, first compound 0.0316 µM.
[8] abbreviates: second compound 0.0316 µM, first compound 0.316 µM.
[9] abbreviates: second compound 0.1 µM, first compound 0.0316 µM.
Setting [10] is: second compound 0.1 µM, first compound 0.316 µM.
[11] abbreviates: second compound 0.316 µM, first compound 0.0316 µM.
Setting [12] is: second compound 0.316 µM, first compound 0.316 µM.
The mark [13] stands for this setting: second compound 1 µM, first compound 0.0316 µM.
Where [14] appears, read: second compound 1 µM, first compound 0.316 µM.
[15] abbreviates: second compound 3.16 µM, first compound 0.0316 µM.
Where [16] appears, read: second compound 3.16 µM, first compound 0.316 µM.
[17] abbreviates: second compound 10 µM, first compound 0.0316 µM.
Setting [18] is: second compound 10 µM, first compound 0.316 µM.

For orientation: viability, T/C means the ratio of treated to control. The IC50 is the midpoint of a concentration-inhibition curve.

Where “and” joins values, the source holds several entries; their conditions need not be identical. Equal values may be shown once.
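Note: spheroids exposed to the agents for seven days before readout.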
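Throughout, for viability, T/C: percent viability relative to DMSO vehicle control wells = 100%.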

As to `Cn1ncnc1[C@H]1c2n[nH]c(=O)c3cc(F)cc(c23)N[C@@H]1c1ccc(F)cc1`, the viability, T/C runs as follows: (compound 0.000999 µM) 105% (2×) and 104%; (compound 0.00316 µM) 103% and 101% and 89.8%; (compound 0.00999 µM) 92.7% and 94.7% and 116%; (compound 0.0316 µM) 107% and 106% and 84.5%; (compound 0.0999 µM) 88.5% and 94.8% and 95.9%; (compound 0.316 µM) 125% and 105% and 92.4%. In addition, the half-inhibitory concentration (IC50) (curve of compound) was more than 316 nM.

Regarding `Cc1cccc(N(C)C(=O)C2C(O)CCN2c2nc(C)cc(C(F)(F)F)c2C#N)c1` (stereo not given), the viability, T/C (compound 0.0316 µM) was 96.8% and 97.5% and 104%; the viability, T/C (compound 0.1 µM) is 96.3% and 100% and 97.4%; the viability, T/C (compound 0.316 µM) was 99.6% and 98.6% and 93.5%; the viability, T/C (compound 1 µM) was 96.4% and 89.9% and 93.7%; the viability, T/C (compound 3.16 µM) was 103% and 83.6% and 97%; the viability, T/C (compound 10 µM) was 79.5% and 81.2% and 102%. The IC50 (curve of compound) is more than 10000 nM.

Turning to `Cc1[nH]c2ccccc2c1CCNCc1ccc(/C=C/C(=O)NO)cc1`, the viability, T/C reads like this: (compound 0.000999 µM) 99.9% and 96.8% and 89.5%; (compound 0.00316 µM) 87.9% and 114% and 103%; (compound 0.00999 µM) 94.2% and 94.3% and 96%; (compound 0.0316 µM) 96.9% and 88.8% and 85.4%; (compound 0.0999 µM) 60.7% and 72.7% and 67.3%; (compound 0.316 µM) 19.8% and 19.1% and 16.6%. The half-maximal inhibitory concentration (IC50) (curve of compound) was 135 nM and 159 nM and 147 nM.

For `O=C(NO)c1cnc(N2CCN(S(=O)(=O)c3ccc4ccccc4c3)CC2)nc1` + Cc1[nH]c2ccc(F)cc2c1-c1nc2c3cccnc3c3ncccc3c2[nH]1, the concentration for half-maximal inhibition (IC50) was 496 nM under setting [1]; 602 nM under setting [2]; 988 nM under setting [3]; 1530 nM under setting [4]; 1300 nM under setting [5]; 1480 nM under setting [6]. Besides, the viability, T/C is 119% under setting [7]; 98% (second compound 0.0316 µM, first compound 0.1 µM); 76.8% under setting [8]; 9.39% (second compound 0.0316 µM, first compound 1 µM); 0.24% (second compound 0.0316 µM, first compound 3.16 µM); 0.27% (second compound 0.0316 µM, first compound 10 µM). Also, the viability, T/C reads like this: under setting [9], 99.2%; (second compound 0.1 µM, first compound 0.1 µM) 111%; under setting [10], 90.2%; (second compound 0.1 µM, first compound 1 µM) 18.1%; (second compound 0.1 µM, first compound 3.16 µM) 0.2%; (second compound 0.1 µM, first compound 10 µM) 0.25%. Further, the viability, T/C under setting [11] is 91.4%; the viability, T/C (second compound 0.316 µM, first compound 0.1 µM) was 102%; the viability, T/C under setting [12] is 88.8%; the viability, T/C (second compound 0.316 µM, first compound 1 µM) was 50.3%; the viability, T/C (second compound 0.316 µM, first compound 3.16 µM) was 0.17%; the viability, T/C (second compound 0.316 µM, first compound 10 µM) was 0.21%. Further, the viability, T/C by setting is: under setting [13], 112%; (second compound 1 µM, first compound 0.1 µM) 91.6%; under setting [14], 80.9%; (second compound 1 µM, first compound 1 µM) 79.2%; (second compound 1 µM, first compound 3.16 µM) 0.19%; (second compound 1 µM, first compound 10 µM) 0.22%. For the same molecule, the viability, T/C is 99.2% under setting [15]; 120% (second compound 3.16 µM, first compound 0.1 µM); 108% under setting [16]; 64.5% (second compound 3.16 µM, first compound 1 µM); 0.22% (second compound 3.16 µM, first compound 3.16 µM); 0.21% (second compound 3.16 µM, first compound 10 µM). Further, the viability, T/C under setting [17] is 87.8%; the viability, T/C (second compound 10 µM, first compound 0.1 µM) was 103%; the viability, T/C under setting [18] was 99.6%; the viability, T/C (second compound 10 µM, first compound 1 µM) is 75.4%; the viability, T/C (second compound 10 µM, first compound 3.16 µM) is 0.25%; the viability, T/C (second compound 10 µM, first compound 10 µM) was 0.25%.

For the molecule `CC[C@@]1(O)C(=O)OCc2c1cc1n(c2=O)Cc2cc3c(CN(C)C)c(O)ccc3nc2-1` + CN(C)c1ccc(Nc2c3ccc(NC(=O)CCN4CCCC4)cc3nc3cc(NC(=O)CCN4CCCC4)ccc23)cc1, the 50% inhibitory concentration (IC50) runs as follows: under setting [1], more than 316 nM; under setting [2], more than 316 nM; under setting [3], more than 316 nM; under setting [4], more than 316 nM; under setting [5], more than 316 nM; under setting [6], more than 316 nM. Further, the viability, T/C is, setting by setting: (second compound 0.0316 µM, first compound 0.000999 µM) 99.2%; (second compound 0.0316 µM, first compound 0.00316 µM) 105%; (second compound 0.0316 µM, first compound 0.00999 µM) 126%; under setting [7], 107%; (second compound 0.0316 µM, first compound 0.0999 µM) 112%; under setting [8], 90.4%. Besides, the viability, T/C runs as follows: (second compound 0.1 µM, first compound 0.000999 µM) 120%; (second compound 0.1 µM, first compound 0.00316 µM) 93.2%; (second compound 0.1 µM, first compound 0.00999 µM) 98.7%; under setting [9], 101%; (second compound 0.1 µM, first compound 0.0999 µM) 84.5%; under setting [10], 90.1%. Besides, the viability, T/C reads like this: (second compound 0.316 µM, first compound 0.000999 µM) 108%; (second compound 0.316 µM, first compound 0.00316 µM) 120%; (second compound 0.316 µM, first compound 0.00999 µM) 108%; under setting [11], 90.1%; (second compound 0.316 µM, first compound 0.0999 µM) 85.8%; under setting [12], 101%. Besides, the viability, T/C reads like this: (second compound 1 µM, first compound 0.000999 µM) 106%; (second compound 1 µM, first compound 0.00316 µM) 105%; (second compound 1 µM, first compound 0.00999 µM) 115%; under setting [13], 114%; (second compound 1 µM, first compound 0.0999 µM) 97.6%; under setting [14], 81.8%. The viability, T/C reads like this: (second compound 3.16 µM, first compound 0.000999 µM) 103%; (second compound 3.16 µM, first compound 0.00316 µM) 97%; (second compound 3.16 µM, first compound 0.00999 µM) 122%; under setting [15], 125%; (second compound 3.16 µM, first compound 0.0999 µM) 124%; under setting [16], 95.9%. Moreover, the viability, T/C runs as follows: (second compound 10 µM, first compound 0.000999 µM) 112%; (second compound 10 µM, first compound 0.00316 µM) 89.3%; (second compound 10 µM, first compound 0.00999 µM) 110%; under setting [17], 97.1%; (second compound 10 µM, first compound 0.0999 µM) 91.6%; under setting [18], 90.1%.

The values are drawn from PubChem BioAssay AID2060513 (Molecular Pharmacology Branch, DTP, NCI, 2025).
